{"source": "patent US20120142605A1", "about": "“METHODS OF TREATING PSORIASIS” (Amgen Inc., priority 2009, published 2012)", "origin": "cited, not measured here", "tested_on": "psoriasis patients", "conditions": "not completely effective for all patients"}
{"substance": "etanercept", "values": [{"measurement": "time for which it can be safely and effectively used", "value": "at least 96 weeks"}]}
